Laboratory results reported in article PMC5681660, “Reduced hepatitis B and D viral entry using clinically applied drugs as novel inhibitors of the bile acid transporter NTCP” (Scientific Reports, 2017).
“Also recorded” adds a separate entry of the source. Where a name gives a salt, the structure may show the parent alone. Read-outs that look alike come from different tables or passages of the source. One block for each compound: values may come before it.

Assays:
in vitro = settings: human
[1] = WST-1 cytotoxicity, wildtype U2OS cells; settings: human, wildtype U2OS cells
U2OS-HA-hNTCP cells = settings: 2 hours
U2OS cells = test: WST-1 cytotoxicity, wildtype U2OS cells; settings: U2OS cells, 2 hours
human NTCP [2] = molecular target: T1, human NTCP (Homo sapiens, UniProt Q14973); test: Taurocholate uptake inhibition studies in U2OS-HA-hNTCP cells; format: cell-based; design: HA; expressed in transfected cells; settings: for IC50: U2OS-HA-hNTCP cells, concentrations 1 nM to 10 mM, read-out: IC50 for hNTCP-mediated TC uptake; for Taurocholate uptake into U2OS-HA-hNTCP cells (in words): increasing drug concentrations
T1 sequence (Q14973 1-349): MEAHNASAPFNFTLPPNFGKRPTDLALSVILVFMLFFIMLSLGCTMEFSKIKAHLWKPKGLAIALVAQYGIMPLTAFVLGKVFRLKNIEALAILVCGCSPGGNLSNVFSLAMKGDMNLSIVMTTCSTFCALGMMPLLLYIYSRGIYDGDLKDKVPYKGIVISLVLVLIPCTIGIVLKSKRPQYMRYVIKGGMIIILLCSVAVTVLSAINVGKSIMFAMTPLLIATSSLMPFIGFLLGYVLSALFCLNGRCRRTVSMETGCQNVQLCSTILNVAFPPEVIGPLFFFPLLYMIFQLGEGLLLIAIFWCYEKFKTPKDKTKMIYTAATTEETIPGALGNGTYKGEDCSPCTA
Method: For MDCK or MDCK-hASBT cells 70.000 cells/well were plated in 24-well plates, followed by 24 hours 10 mM sodium butyrate (Sigma-Aldrich) stimulation the next day. Cells were used in the inhibition studies 24 hours (U2OS cell lines) or 48 hours (MDCK cell lines) later. Inhibition studies with mNTCP transiently transfected cells were conducted 48–72 hours after transfection.
Medium was aspirated from the wells and cells were washed once with 250 µL uptake buffer. Subsequently, cells were pre-incubated with drug in 150 µL uptake buffer for 10 minutes at 37 °C. Taurocholate uptake was initiated by addition of 100 µL uptake buffer containing taurocholate (final concentration 10 µM TC spiked with tritium-labeled TC) and cells were incubated for 2 minutes at 37 °C. Subsequently, cells were washed 4 times with ice-cold PBS and lysed with 0.05% SDS in water. Radioactivity was measured by liquid scintillation counting.

human NTCP [3] = molecular target: T1, human NTCP; test: Myrcludex B-FITC binding by confocal microscopy in U2OS-HA-hNTCP cells; design: HA; expressed in transfected cells; settings: for Myrcludex B-FITC fluorescence / binding to U2OS-HA-hNTCP cells (in words): co-administration with increasing amounts of drug; for ≥50% loss of Myrcludex B binding to hNTCP (concentration): confocal microscopy, 0.2 µM Myrcludex B-FITC, drug 1, 10, 100 µM, concentration at which binding inhibited minimally 50%
Method: After 24 hours, medium was aspirated and cells were washed once with 300 µl Leibovitz’s L-15 Medium (Invitrogen). A 30 minute incubation period followed in which all cells were incubated with 0.2 µM Myrcludex B-FITC with or without drug (1, 10, 100 µM) and Hoechst (1/1000) in 300 µL Leibovitz’s L-15 Medium. Cells were washed twice with Leibovitz’s L-15 Medium and subsequently 400 µL Leibovitz’s L-15 Medium was added. Live cell fluorescent imaging was performed using a Leica SP8X-SMD confocal microscope with fully enclosed incubation at 37 °C. A 63x oil objective was used and images were captured while the cells were consecutively excited at 490 nm (FITC) 350 nm (Hoechst). ImageJ software (National Insititutes of Health, Bethesda, MD) was employed for data analysis.

HDV = HDV infection of HepaRG cells (HDAg immunofluorescence); format: cell-based, hepatitis delta virus; settings: HDAg positive cells, day 5; concentration-dependent
human NTCP [4] = molecular target: T1, human NTCP; test: Screening taurocholate uptake assay (96-well, [14C]taurocholate, 10 µM drug); settings: for B-score functional assay: 10 µM drug
human NTCP [5] = molecular target: T1, human NTCP; test: Screening fluorescent competitive Myrcludex B-FITC binding assay (96-well, 10 µM drug); settings: 10 µM drug
[6] = screen, Myrcludex B-FITC binding
[7] = combined ranking from functional and binding screening assays
[8] = Prestwick library screen, Myrcludex B-FITC binding
[9] = Prestwick library screen, taurocholate uptake
[10] = ranking score beside the functional and binding assay B-scores of the screen

SMILES: CC(C)c1ccc2oc3nc(N)c(C(=O)O)cc3c(=O)c2c1 [Amlexanox]
viability at 2 h, 1 µM (in vitro; U2OS-HA-hNTCP cells): 99.6 ± 6.1% | viability at 2 h, 10 µM (in vitro; U2OS-HA-hNTCP cells): 102 ± 18.9% | viability at 2 h, 100 µM (in vitro; U2OS-HA-hNTCP cells): 92.7 ± 17.8% | viability at 2 h, 1 µM [1]: 88.2 ± 9.6% | viability at 2 h, 10 µM [1]: 94.8 ± 13.8% | viability at 2 h, 100 µM [1]: 77.3 ± 5.6%

SMILES: Nc1c2c(nc3ccccc13)CCCC2O.O=C(O)/C=C\C(=O)O (centres unmarked) [Hydroxytacrine Maleate]
cell viability by WST-1 (U2OS-HA-hNTCP cells; 1 µM): 105.6 ± 1.2% | cell viability by WST-1 (U2OS-HA-hNTCP cells; 10 µM): 102 ± 8.3% | cell viability by WST-1 (U2OS-HA-hNTCP cells; 100 µM): 96.7 ± 5.9% | cell viability by WST-1 (U2OS cells; 1 µM): 107.6 ± 15.7% | cell viability by WST-1 (U2OS cells; 10 µM): 100.7 ± 7.1% | cell viability by WST-1 (U2OS cells; 100 µM): 95.8 ± 3.9% | IC50 (human NTCP [2]): 4200 µM | outcome of follow-up screening of hits found in only one of the two screens (human NTCP [2]; follow-up of TC uptake and Myrcludex B binding): false positives | Taurocholate uptake into U2OS-HA-hNTCP cells (in words) (human NTCP [2]): not | Myrcludex B-FITC fluorescence / binding to U2OS-HA-hNTCP cells (in words) (human NTCP [3]): not | ≥50% loss of Myrcludex B binding to hNTCP (concentration) (human NTCP [3]): Not confirmed

SMILES: CS(=O)(=O)O.Cc1c(O)cccc1C(=O)N[C@@H](CSc1ccccc1)[C@H](O)CN1C[C@H]2CCCC[C@H]2C[C@H]1C(=O)NC(C)(C)C [Nelfinavir Mesylate Hydrate]
cell viability by WST-1 (U2OS-HA-hNTCP cells; 1 µM): 105.3 ± 7.1% | cell viability by WST-1 (U2OS-HA-hNTCP cells; 10 µM): 99.8 ± 5.2% | cell viability by WST-1 (U2OS-HA-hNTCP cells; 100 µM): 104.8 ± 4.5% | cell viability by WST-1 (U2OS cells; 1 µM): 105.9 ± 8.4% | cell viability by WST-1 (U2OS cells; 10 µM): 102 ± 10.7% | cell viability by WST-1 (U2OS cells; 100 µM): 95.1 ± 5.6% | IC50 (human NTCP [2]): 134 µM | Taurocholate uptake into U2OS-HA-hNTCP cells (in words) (human NTCP [2]): reduced in a dose-dependent fashion | Myrcludex B-FITC fluorescence / binding to U2OS-HA-hNTCP cells (in words) (human NTCP [3]): reduced Myrcludex B-FITC fluorescence | ≥50% loss of Myrcludex B binding to hNTCP (concentration) (human NTCP [3]): ≥100 µM

SMILES: O=C(O)Cc1cc(I)c(Oc2ccc(O)c(I)c2)c(I)c1 [TRIAC, 3,3′,5-Triiodothyroacetic acid]
HDV infection in HepaRG cells (in words) (HDV): reduced HBV/HDV infection; also recorded: reduce | viability at 2 h, 1 µM (in vitro): 109 ± 4.1% | viability at 2 h, 10 µM (in vitro): 105 ± 2.1% | viability at 2 h, 100 µM (in vitro): 86.3 ± 4.9% | viability at 2 h, 1 µM [1]: 100 ± 7.5% | viability at 2 h, 100 µM [1]: 81.6 ± 3.8% | HBV infection in HepaRG cells (in words) (HBV; HBeAg, HBsAg, HBcAg, concentration-dependent): reduced HBV/HDV infection; also recorded: reduce | number of HBcAg positive stained cells (HBV; HepaRG cells, day 10 post HBV infection, 50 µM): mild reduction

SMILES: Cc1cc(-n2c(=O)[nH]c(=O)n(C)c2=O)ccc1Oc1ccc(SC(F)(F)F)cc1 [Toltrazuril]
viability at 2 h, 1 µM (in vitro; U2OS-HA-hNTCP cells): 100 ± 9.9% | viability at 2 h, 10 µM (in vitro; U2OS-HA-hNTCP cells): 109 ± 12.9% | viability at 2 h, 100 µM (in vitro; U2OS-HA-hNTCP cells): 105 ± 11.4% | viability at 2 h, 1 µM [1]: 115 ± 6.1% | viability at 2 h, 10 µM [1]: 109 ± 11.8% | viability at 2 h, 100 µM [1]: 101 ± 3.6% | IC50 (human NTCP [2]): 84.1 µM | Taurocholate uptake into U2OS-HA-hNTCP cells (in words) (human NTCP [2]): reduced in a dose-dependent fashion | Myrcludex B-FITC fluorescence / binding to U2OS-HA-hNTCP cells (in words) (human NTCP [3]): reduced Myrcludex B-FITC fluorescence | ≥50% loss of Myrcludex B binding to hNTCP (concentration) (human NTCP [3]): ≥10 µM | Ranking score (human NTCP [4]; ranking over the functional and the binding screening assay): 35.4965 | B-score functional assay (human NTCP [4]; screening taurocholate uptake): -3.14

SMILES: Cc1cc(C(C)(C)C)cc(C)c1CC1=NCCN1 [Xylometazoline hydrochloride]
B-score binding assay (human NTCP [5]; [6]): -1.17 | Ranking score (human NTCP [4]; [7]): 287.23 | B-score functional assay (human NTCP [4]; screen, taurocholate uptake): -0.462

B-score binding assay (human NTCP [5]; [8]): -0.087 | B-score functional assay (human NTCP [4]; [9]): 1.286 | Ranking score (human NTCP [4]; [10]): 782.741
SMILES: Nc1ccn([C@H]2CC[C@@H](CO)O2)c(=O)n1 [Zalcitabine]

B-score binding assay (human NTCP [5]; [6]): 0.49 | Ranking score (human NTCP [4]; [7]): 379.335 | B-score functional assay (human NTCP [4]; screen, taurocholate uptake): -1.701
SMILES: COc1cc(-c2ccc(=O)[nH]n2)ccc1OC(F)F [Zardaverine]

B-score binding assay (human NTCP [5]; Prestwick library screen, B-score of Myrcludex B-FITC binding): 0.429 | B-score functional assay (human NTCP [4]; Prestwick library screen, B-score of taurocholate uptake): 1.119 | Ranking score (human NTCP [4]; combined ranking from functional and binding assay B-scores): 985.737
SMILES: Cc1cn([C@H]2C[C@H](N=[N+]=[N-])[C@@H](CO)O2)c(=O)[nH]c1=O [Zidovudine, AZT]

B-score binding assay (human NTCP [5]; [8]): 1.294 | B-score functional assay (human NTCP [4]; [9]): -0.271 | Ranking score (human NTCP [4]; [10]): 706.817
SMILES: CC(c1cc2ccccc2s1)N(O)C(N)=O (centres unmarked) [Zileuton]

B-score binding assay (human NTCP [5]; [6]): -0.675 | Ranking score (human NTCP [4]; [7]): 382.094 | B-score functional assay (human NTCP [4]; screen, taurocholate uptake): -0.279
SMILES: O=C1Cc2cc(CCN3CCN(c4nsc5ccccc45)CC3)c(Cl)cc2N1 [Ziprasidone Hydrochloride]
